Experimental data from BindingDB's records for doi:10.1016/j.bmcl.2011.09.056 (Merck Research Laboratories, 2011).

Assays:
[1] = Displacement of [125I]CGRP form CGRP receptor in human SK-N-MC cell membrane by competitive binding assay
[2] = Displacement of [125I]CGRP form CGRP receptor in human SK-N-MC cell membrane by competitive binding assay in the absence of MgCl2

## CC(C)C[C@H](NC(=O)CNC(=O)[C@H](C)NC(=O)[C@H](CC(C)C)NC(=O)[C@H](CCCN=C(N)N)NC(=O)[C@H](Cc1cnc[nH]1)NC(=O)[C@@H](NC(=O)[C@@H](NC(=O)[C@H](CS)NC(=O)[C@@H](NC(=O)[C@H](C)NC(=O)[C@@H](NC(=O)[C@H](CC(=O)O)NC(=O)[C@H](CS)NC(=O)[C@H](C)N)[C@@H](C)O)[C@@H](C)O)C(C)C)[C@@H](C)O)C(=O)N[C@@H](CC(C)C)C(=O)N[C@@H](CO)C(=O)N[C@@H](CCCN=C(N)N)C(=O)N[C@@H](CO)C(=O)NCC(=O)NCC(=O)N[C@H](C(=O)N[C@H](C(=O)N[C@@H](CCCCN)C(=O)N[C@@H](CC(N)=O)C(=O)N[C@@H](CC(N)=O)C(=O)N[C@@H](Cc1ccccc1)C(=O)N[C@H](C(=O)N1CCC[C@H]1C(=O)N[C@H](C(=O)N[C@@H](CC(N)=O)C(=O)N[C@H](C(=O)NCC(=O)N[C@@H](CO)C(=O)N[C@@H](CCCCN)C(=O)N[C@@H](C)C(=O)N[C@@H](Cc1ccccc1)C(N)=O)C(C)C)[C@@H](C)O)C(C)C)C(C)C)C(C)C
[1]
  Ki: 0.01 nM
[2]
  Ki: 0.01 nM
